Measured values taken from the supplement of paper PMC10307832.

How the values were obtained:
Test in all cases: relative viability (nuclei count vs DMSO), 5 days (fraction); higher = more cells survive
AZ628 + Olaparib = compound: CC1=C(C=C(C=C1)NC(=O)C2=CC(=CC=C2)C(C)(C)C#N)NC3=CC4=C(C=C3)N=CN(C4=O)C [AZ628] + O=C(c1cc(Cc2n[nH]c(=O)c3ccccc23)ccc1F)N1CCN(C(=O)C2CC2)CC1 [Olaparib] (partner 8 µM)
Procedure, shortened: (§1)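 A single step with final 0.05% Triton X-100, 1% formaldehyde and 1 ug/ml Hoechst fixed the cells and stained nuclei 5 days after treatment. Lung cancer cell lines in 1536-well plates had been treated by pin tool the day after seeding with one drug alone or a fixed anchor-drug dose plus five library-drug doses (not always all listed) in √10 steps, and nuclei were counted on 4× images. Relative viability is the ratio of nuclei in treated wells to nuclei in vehicle wells, taken as the median of duplicate plates.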

[1] = compound: C[As](C)SC[C@H](NC(=O)CC[C@H](N)C(=O)O)C(=O)NCC(=O)O [Darinaparsin] + Nc1ncn([C@H]2C[C@H](O)[C@@H](CO)O2)c(=O)n1 [Decitabine] (partner 2 µM)
Procedure, shortened: as §1

Darinaparsin + Lapatinib = compound: C[As](C)SC[C@H](NC(=O)CC[C@H](N)C(=O)O)C(=O)NCC(=O)O [Darinaparsin] + CS(=O)(=O)CCNCc1ccc(-c2ccc3ncnc(Nc4ccc(OCc5cccc(F)c5)c(Cl)c4)c3c2)o1 [Lapatinib] (partner 2 µM)
Procedure, shortened: as §1

AZ628 + Luminespib = compound: CC1=C(C=C(C=C1)NC(=O)C2=CC(=CC=C2)C(C)(C)C#N)NC3=CC4=C(C=C3)N=CN(C4=O)C [AZ628] + CCNC(=O)c1noc(-c2cc(C(C)C)c(O)cc2O)c1-c1ccc(CN2CCOCC2)cc1 [Luminespib] (partner 0.01 µM)
Procedure, shortened: as §1

Cell Line | relative viability (AZ628 + Olaparib; first compound 0.08 µM) | relative viability (AZ628 + Olaparib; first compound 0.253 µM) | relative viability (AZ628 + Olaparib; first compound 0.8 µM) | relative viability (AZ628 + Olaparib; first compound 2.53 µM) | relative viability (AZ628 + Olaparib; first compound 8 µM) | relative viability ([1]; first compound 0.08 µM) | relative viability ([1]; first compound 0.8 µM) | relative viability ([1]; first compound 2.53 µM) | relative viability ([1]; first compound 8 µM) | relative viability (Darinaparsin + Lapatinib; first compound 0.08 µM) | relative viability (Darinaparsin + Lapatinib; first compound 0.8 µM) | relative viability (Darinaparsin + Lapatinib; first compound 2.53 µM) | relative viability (Darinaparsin + Lapatinib; first compound 8 µM) | relative viability (AZ628 + Luminespib; first compound 0.08 µM) | relative viability (AZ628 + Luminespib; first compound 0.253 µM) | relative viability (AZ628 + Luminespib; first compound 0.8 µM) | relative viability (AZ628 + Luminespib; first compound 2.53 µM) | relative viability (AZ628 + Luminespib; first compound 8 µM)
HCC-827 | 0.652 | 0.621 | 0.704 | 0.661 | 0.528 | 0.284 | 0.316 | 0.32 | 0.363 | 0.198 | 0.184 | 0.153 | 0.176 | 0.698 | 0.5 | 0.588 | 0.701 | 0.623
HOP-62 | 0.543 | 0.359 | 0.633 | 0.68 | 0.39 | 0.233 | 0.27 | 0.235 | 0.23 | 1.12 | 1.01 | 0.97 | 1.29 | 0.977 | 0.865 | 0.759 | 0.826 | 0.475
IA-LM | 1.03 | 0.815 | 0.846 | 0.875 | 0.363 | – | – | – | – | 1.25 | 0.658 | 1.32 | 1.07 | – | – | – | – | –
LC-2-ad | 0.712 | 0.646 | 0.823 | 0.736 | 0.681 | 0.905 | 0.838 | 0.786 | 0.899 | 1.14 | 0.863 | 0.892 | 1.08 | 1.1 | 1.08 | 0.458 | 1.13 | 0.926
LCLC-103H | 0.797 | 0.77 | 0.761 | 0.779 | 0.769 | 0.788 | 0.722 | 0.715 | 0.8 | – | – | – | – | 0.971 | 0.879 | 0.974 | 0.94 | 0.965
LK-2 | 0.874 | 0.549 | 0.684 | 0.689 | 0.309 | 0.281 | 0.235 | 0.277 | 0.333 | 0.978 | 0.622 | 0.926 | 1.05 | 0.224 | 0.205 | 0.206 | 0.187 | 0.16
LOU-NH91 | 0.935 | 0.94 | 0.965 | 0.936 | 0.764 | 0.876 | 0.771 | 0.782 | 0.799 | 0.848 | 0.647 | 0.705 | 0.795 | 0.299 | 0.396 | 0.332 | 0.308 | 0.293
LU99A | 0.269 | 0.255 | 0.272 | 0.296 | 0.214 | 0.887 | 0.863 | 0.925 | 1.06 | 1.03 | 0.942 | 0.923 | 1.22 | 0.306 | 0.283 | 0.23 | 0.207 | 0.183
LXF-289 | 1.13 | 1.01 | 0.922 | 1.08 | 0.756 | 0.41 | 0.424 | 0.347 | 0.4 | 0.968 | 0.874 | 0.765 | 1.08 | 0.672 | 0.67 | 0.681 | 0.653 | 0.544
NCI-H23 | 0.316 | 0.312 | 0.331 | 0.227 | 0.216 | 0.341 | 0.292 | 0.35 | 0.311 | 1.54 | 0.999 | 1.22 | 1.38 | 0.201 | 0.222 | 0.224 | 0.216 | 0.201
NCI-H322M | 0.805 | 0.755 | 0.819 | 0.774 | 0.783 | 0.704 | 0.686 | 0.577 | 0.724 | 0.611 | 0.603 | 0.52 | 0.603 | 0.924 | 0.815 | 0.935 | 0.79 | 0.549
NCI-H358 | 0.567 | 0.457 | 0.361 | 0.417 | 0.295 | 0.189 | 0.21 | 0.231 | 0.193 | 0.463 | 0.412 | 0.422 | 0.52 | 0.285 | 0.279 | 0.273 | 0.311 | 0.167
NCI-H441 | 0.547 | 0.532 | 0.738 | 0.699 | 0.542 | 0.255 | 0.21 | 0.245 | 0.19 | – | – | – | – | 0.33 | 0.342 | 0.345 | 0.469 | 0.241
NCI-H522 | 0.643 | 0.691 | 0.602 | 0.689 | 0.522 | 0.626 | 0.627 | 0.711 | 0.705 | – | – | – | – | 1.33 | 1.15 | 1.16 | 1.29 | 0.821
NCI-H1299 | 1.12 | 1.18 | 1.12 | 1.27 | 0.628 | – | – | – | – | 1.09 | 0.955 | 0.958 | 0.853 | – | – | – | – | –
NCI-H1563 | – | – | – | – | – | – | – | – | – | 1.01 | 1.02 | 0.914 | 1.14 | 0.531 | 0.524 | 0.519 | 0.56 | 0.515
NCI-H1623 | – | – | – | – | – | – | – | – | – | – | – | – | – | 0.493 | 0.432 | 0.393 | 0.358 | 0.395
NCI-H1648 | 1.09 | 0.62 | 1.01 | 0.767 | 0.556 | – | 0.474 | – | 0.494 | – | – | – | – | – | – | – | – | –
NCI-H1703 | 0.239 | 0.216 | 0.216 | 0.178 | 0.177 | – | – | – | – | – | 1.18 | 1.29 | 1.18 | – | – | – | – | –
NCI-H2228 | 0.585 | 0.583 | 0.847 | 0.698 | 0.541 | – | – | – | – | 1.46 | 0.869 | 0.685 | 1.22 | 0.119 | 0.133 | 0.18 | 0.195 | 0.14
NCI-H2342 | 0.447 | 0.401 | 0.479 | 0.449 | 0.431 | 0.712 | 0.688 | 0.76 | 0.702 | – | – | – | – | 0.763 | 0.865 | 0.736 | 0.821 | 0.825
SW 900 | 1.04 | 0.878 | 1.02 | 0.951 | 0.683 | 0.44 | – | 0.404 | 0.462 | – | – | – | – | 0.18 | 0.188 | 0.156 | 0.152 | 0.176
